Three molecules from patent US7078499B2, “Nucleotide analogues comprising a reporter moiety and a polymerase enzyme blocking moiety” (GE Healthcare UK Limited, priority 2000, dated 2006) can be followed below.

This test has as its target T1, Pfu DNA polymerase (Pyrococcus furiosus, UniProt P61875).
T1 construct: purchased Stratagene Ltd
T1 sequence (P61875 1-775): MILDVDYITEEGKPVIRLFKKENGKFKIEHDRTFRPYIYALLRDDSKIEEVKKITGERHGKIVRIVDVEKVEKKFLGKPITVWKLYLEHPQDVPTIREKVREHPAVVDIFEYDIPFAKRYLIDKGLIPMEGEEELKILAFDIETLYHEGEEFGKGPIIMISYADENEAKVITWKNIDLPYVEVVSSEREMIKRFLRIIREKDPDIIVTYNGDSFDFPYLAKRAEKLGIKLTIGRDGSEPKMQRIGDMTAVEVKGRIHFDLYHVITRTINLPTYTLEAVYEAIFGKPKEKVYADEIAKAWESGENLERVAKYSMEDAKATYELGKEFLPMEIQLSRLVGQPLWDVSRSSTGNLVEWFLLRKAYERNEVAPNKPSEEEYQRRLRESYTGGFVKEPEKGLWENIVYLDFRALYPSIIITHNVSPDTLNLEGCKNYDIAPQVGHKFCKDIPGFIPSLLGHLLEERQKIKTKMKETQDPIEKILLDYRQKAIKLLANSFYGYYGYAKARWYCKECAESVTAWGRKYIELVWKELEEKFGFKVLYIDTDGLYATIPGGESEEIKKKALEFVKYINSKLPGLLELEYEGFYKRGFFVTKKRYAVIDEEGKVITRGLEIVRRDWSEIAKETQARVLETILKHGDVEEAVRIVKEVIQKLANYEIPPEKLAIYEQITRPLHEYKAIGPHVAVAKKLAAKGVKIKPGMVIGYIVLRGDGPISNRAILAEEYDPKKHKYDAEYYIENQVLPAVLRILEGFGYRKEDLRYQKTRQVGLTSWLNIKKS
Description: Thermostable DNA polymerase primer extension, Pfu. The format is biochemical. Also noted: key: −: No extension within assay time; +/−: up to 25% of primer extended by at least one base within assay time; +: up to 50% of primer extended by at least one base within assay time; ++: up to 75% of primer extended by at least one base within assay time; +++: essentially all primer extended by at least one base within assay time. The settings on record: DNA template, TTP replaced entirely by test compound, 45° C. for 20–40 minutes. The method, then: DNA polymerase assays were performed using Sequence 1 as primer and Sequence 2 as template. • Sequence 1 5′[Cy3]TAACTCATTAACAGGATC 3′ • Sequence 2 5′AT TCGCGGTATTCTGGTATGAAGCTTTTAGATCCTGTTAATGAGTTA GTA3′
The template (Sequence 2) was designed such that the base (underlined) immediately adjacent to the 3′ end of the hybridised primer is complementary to the nucleotide test compound. Nucleotide test compounds were compounds (6) (4′-C-(glycylaminomethyl)thymidine triphosphate), (8) (4′-C-(N-trifluoroacetyaminomethyl)thymidine triphosphate) and (9) (4′-C-(aminomethyl)thymidine triphosphate) as described above.
Primer extension reactions were performed using the above primers in the presence of 40 to 80 μM of nucleotide triphosphates. Positive control reactions contained all four native nucleotide triphosphates. For the other reactions the TTP was replaced with either a 2:1 ratio of […] for the terminator control, or entirely by the test compound The enzymes were used at a final concentration of 0.175 units/μl and a magnesium ion concentration of 2.5 mM in buffers supplied by the manufacturer. The primer and template concentrations were 0.5 pmol/μl and 2 pmol/μl respectively.
Extension reactions with thermophilic enzymes were performed by initially denaturing the fully assembled reactions at 70° C. for 5 min. followed by 45° C. for 20–40 minutes. The following enzymes were used: Taq DNA polymerase (Taq); Thermosequenase (TS); Thermosequenase II (TSII); Thermosequenase E (TSE), Tfl DNA polymerase (Tfl); Tth DNA polymerase (Tth), deltaTts DNA polymerase (deltaTts), deltaTts D DNA polymerase (dettaTTSD) (all from APBiotech); Pfu DNA polymerase (Pfu) (Stratagene Ltd); Vent™ DNA polymerase (Vent) (New England Biolabs).
The reactions were stopped by adding a 0.5 volume aliquot of 80% formamide containing 0.1% (w/v) bromophenol blue and 0.1% (w/v) cresol blue. […]
Gels were scanned for Cy3 fluorescence on a Molecular Dynamics Fluorimager and the data analysed using Molecular Dynamics ImageQuant 5 software. […]

For the molecule “4′-C-(Aminomethyl)thymidine triphosphate [compound (9)]”, the “primer extended by at least one base within assay time (grade)” value is “−”.
Take “4′-C-(Glycylaminomethyl)thymidine triphosphate [compound (6)]”: the “primer extended by at least one base within assay time (grade)” value was “−”.
The result for `Cc1cn([C@H]2C[C@H](O)[C@@](CNC(=O)C(F)(F)F)(COP(=O)(O)OP(=O)(O)OP(=O)(O)O)O2)c(=O)[nH]c1=O` [compound (8), 4′-C-(N-trifluoroacetylaminomethyl)thymidine triphosphate] reads “−”.
